Test results taken from US20130190251A1, “METHOD FOR PREDICTING THE RESPONSIVENESS TO CHEMOTHERAPY” (priority 2010, published 2013).
“Also recorded” adds a separate entry of the source.

How the values were obtained:
Format in all cases: cell-based
[1] = test system: HL-60 cells sensitive to daunorubicin (HL60S); assay: Apoptosis by DNA fragmentation after propidium iodide labeling, HL60S; details: 15-hour incubation, gliotoxin 1 mg/ml or p21 peptide 50 mM
Description: (§1) FIG. 7. The p21 peptide restores apoptosis in daunorubicin-resistant HL60 cells. HL60S and HL60R were incubated overnight with the p21 peptide (50 mM) or with gliotoxin (1 mg/ml). After a 15-hour incubation, the effect of the p21 peptide on the percentage of apoptotic HL60 cells was measured by mitochondrial depolarization after DiOC6 labeling and by DNA fragmentation after propidium iodide labeling. Data are means±SEM of 5 independent experiments.
(§2) Apoptosis in HL-60 cells sensitive to daunorubicin (HL60S) was compared to apoptosis in HL-60 cells resistant to daunorubicin (HL60R). Apoptosis was induced either by gliotoxin that triggers apoptosis by targeting the mitochondria or the p21 peptide. The p21 peptide corresponds to residues 141 to 160 of p21 fused to the cell penetrating peptide RYIRS. HL60S and HL60R were incubated overnight with the p21 peptide (50 mM) or with gliotoxin (1 mg/ml). After a 15-hour incubation, the effect of the p21 peptide on the percentage of apoptotic HL60 cells was measured by mitochondrial depolarization after DiOC6 labeling and by DNA fragmentation after propidium iodide labeling (FIG. 7).

[2] = test system: HL-60 cells resistant to daunorubicin (HL60R); assay: Apoptosis by mitochondrial depolarization after DiOC6 labeling, HL60R; details: 15-hour incubation, gliotoxin 1 mg/ml or p21 peptide 50 mM
Description: as §1, §2

[3] = test system: HL-60 cells resistant to daunorubicin (HL60R); assay: Apoptosis by DNA fragmentation after propidium iodide labeling, HL60R; details: 15-hour incubation, gliotoxin 1 mg/ml or p21 peptide 50 mM
Description: as §1, §2

[4] = test system: K562-doxorubicin resistant cells; assay: Analysis of drug resistance by DIOC2 efflux, K562 resistant; details: cisplatin 2.5 μg/ml, DIOC2 50 ng/ml, 30 min at 37° C., FACS
Description: (§3) FIG. 6. Acquisition of drug resistance of myelocytic leukemia cell line K562 by doxorubicin. Analysis of inhibition by cisplatin of DIOC2 incorporation in myelocytic leukemia K562 cell line. Drug resistance is mediated by ABC transporters such as P-glycoprotein (P-gp) K562 cells were incubated with DIOC2 with or without cisplatin, and the fluorescence of DIOC2 incorporated in cells was assessed by FACS. In K562-doxorubicin sensitive cells, high fluorescence of DIOC2 is observed because of the lack of efflux. No effect of cisplatin is observed consistent with an absence of ABC transporter-mediated drug resistance.
(§4) The assay is based on the efflux of fluorescent P-gp substrate DiOC2 (3-ethyl-2-[3-(3-ethyl-2(3H)-benzoxazolylidene)-1-propenyl]benzoxazolium iodide) in doxorubicin-resistant cells, which can be inhibited by cisplatin. This efflux is absent in doxorubicin-sensitive cells resulting in an accumulation of DIOC2. DIOC2 fluorescence is measured by flow cytometry. Briefly, K562 at 1×10^6 cellules/ml were treated by cisplatin (2.5 μg/ml) in the presence of DIOC2 (50 ng/ml) for 30 min at 37° C. The cells are analyzed by flow cytometry.

[5] = test system: K562-doxorubicin sensitive cells; assay: Analysis of drug resistance by DIOC2 efflux, K562 sensitive; details: cisplatin 2.5 μg/ml, DIOC2 50 ng/ml, 30 min at 37° C., FACS
Description: as §3, §4

[6] = test system: HL-60 cells sensitive to daunorubicin (HL60S); assay: Apoptosis by mitochondrial depolarization after DiOC6 labeling, HL60S; details: 15-hour incubation, gliotoxin 1 mg/ml or p21 peptide 50 mM
Description: as §1, §2

With CN1C(=O)[C@]23CC4=CC=C[C@H](O)[C@H]4N2C(=O)[C@@]1(CO)SS3 [Gliotoxin, gliotoxin] the “DNA fragmentation in HL60S (percentage of apoptotic HL60 cells)” value [1] was “triggers mitochondria depolarization and DNA fragmentation in HL60S”, the “DNA fragmentation in HL60S (percentage of apoptotic HL60 cells)” value ([1]; listed as gliotoxin) was “induces apoptosis in HL60S” and the “mitochondria depolarization in HL60R (percentage of apoptotic HL60 cells)” value [2] was “no effect on HL60R”. For the same compound, the “DNA fragmentation in HL60R (percentage of apoptotic HL60 cells)” value [3] was “no effect on HL60R”.

For N.N.[Cl][Pt][Cl] [cisplatin], the “effect on DIOC2 efflux (fluorescence of DIOC2 incorporated in cells)” value [4] was “efflux which was reversed” and the “effect on fluorescence of DIOC2 incorporated in cells” value [5] was “No effect”.

In the case of “p21 peptide: residues 141 to 160 of p21 fused to the cell penetrating peptide RYIRS (KRRQTSMTDFYHSKRRLIFSRYIRS; Synthetic peptide based on residues 141 to 160 of p21 fused to the RYIRS tag)”, the “mitochondria depolarization in HL60S (percentage of apoptotic HL60 cells)” value [6] is reported as “more modest effect”, the “mitochondria depolarization in HL60R (percentage of apoptotic HL60 cells)” value [2] is reported as “low but significant mitochondria depolarization” and the “DNA fragmentation in HL60R (percentage of apoptotic HL60 cells)” value [3] is reported as “induces DNA fragmentation in HL60R more potently than in HL60S; also recorded: inducing DNA fragmentation in HL60R more potently than in HL60S”.
